Test results from US7662814B2, “4-aminothieno[2,3-d]pyrimidine-6-carbonitrile derivatives as PDE7 inhibitors” (Laboratorios Almirall, S.A., priority 2003, dated 2010).

Row | SMILES | melting point [°C]
1 | CCCCN(CCCC)c1nc(-c2ccc(OC)cc2)nc2sc(C#N)c(C)c12 [Example 14, 4-(Dibutylamino)-2-(4-methoxyphenyl)-5-methylthieno[2,3-d]pyrimidine-6-carbonitrile] | 96 to 98
2 | COc1ccc(-c2nc(N3CCN(C)CC3)c3c(C)c(C#N)sc3n2)cc1 [Example 9, 2-(4-Methoxyphenyl)-5-methyl-4-(4-methylpiperazin-1-yl)thieno[2,3-d]pyrimidine-6-carbonitrile] | > 250
3 | CCN(CC)c1nc(-c2ccncc2)nc2sc(C#N)c(C)c12 [Example 45, 4-(Diethylamino)-5-methyl-2-pyridin-4-ylthieno[2,3-d]pyrimidine-6-carbonitrile] | 169 to 171
4 | CCN(C)c1nc(-c2ccc(OC)cc2)nc2sc(C#N)c(C)c12 [Example 17, 4-[Ethyl(methyl)amino]-2-(4-methoxyphenyl)-5-methylthieno[2,3-d]pyrimidine-6-carbonitrile] | 122 to 123
5 | Cc1ccc(-c2nc(N3CCOCC3)c3c(C)c(C#N)sc3n2)cc1 [Example 32, 5-Methyl-2-(4-methylphenyl)-4-morpholin-4-ylthieno[2,3-d]pyrimidine-6-carbonitrile] | 206 to 207
6 | Cc1c(C#N)sc2nc(-c3ccccc3)nc(N3CCNCC3)c12 [Example 8, 5-Methyl-2-phenyl-4-piperazin-1-ylthieno[2,3-d]pyrimidine-6-carbonitrile] | 251 to 253
7 | CCN(C)c1nc(-c2cc(OC)cc(OC)c2)nc2sc(C#N)c(C)c12 [Example 55, 2-(3,5-Dimethoxy-phenyl)-4-(ethyl-methyl-amino)-5-methyl-thieno[2,3-d]pyrimidine-6-carbonitrile] | 145 to 148
8 | CCN(CC)c1nc(-c2ccc3c(c2)OCO3)nc2sc(C#N)c(C)c12 [Example 36, 2-(1,3-Benzodioxol-5-yl)-4-(diethylamino)-5-methylthieno[2,3-d]pyrimidine-6-carbonitrile] | 199 to 201
9 | CCN1CCN(c2nc(-c3ccc(OC)cc3)nc3sc(C#N)c(C)c23)CC1 [Example 2, 4-(4-Ethylpiperazin-1-yl)-2-(4-methoxyphenyl)-5-methylthieno[2,3-d]pyrimidine-6-carbonitrile] | 173 to 175
10 | COc1ccc(-c2nc(N3CCCC3)c3c(C)c(C#N)sc3n2)cc1 [Example 11, 2-(4-Methoxyphenyl)-5-methyl-4-pyrrolidin-1-ylthieno[2,3-d]pyrimidine-6-carbonitrile] | 176 to 178
11 | COc1ccc(-c2nc(N3CCOCC3)c3c(C)c(C#N)sc3n2)cc1 [Example 22, 2-(4-Methoxyphenyl)-5-methyl-4-morpholin-4-ylthieno[2,3-d]pyrimidine-6-carbonitrile] | 204 to 206
12 | C=CCN(C)c1nc(-c2ccc(OC)cc2)nc2sc(C#N)c(C)c12 [Example 29, 4-[Allyl(methyl)amino]-2-(4-methoxyphenyl)-5-methylthieno[2,3-d]pyrimidine-6-carbonitrile] | 126 to 128
13 | CCN(C)c1nc(-c2ccncc2)nc2sc(C#N)c(C)c12 [Example 38, 4-[Ethyl(methyl)amino]-5-methyl-2-pyridin-4-ylthieno[2,3-d]pyrimidine-6-carbonitrile] | 162 to 164
14 | Cc1c(C#N)sc2nc(-c3ccc4c(c3)OCO4)nc(N3CCOCC3)c12 [Example 37, 2-(1,3-Benzodioxol-5-yl)-5-methyl-4-morpholin-4-ylthieno[2,3-d]pyrimidine-6-carbonitrile] | 197 to 198
15 | COc1ccc(-c2nc(N3CCCCC3)c3c(C)c(C#N)sc3n2)cc1 [Example 6, 2-(4-Methoxyphenyl)-5-methyl-4-piperidin-1-ylthieno[2,3-d]pyrimidine-6-carbonitrile] | 202 to 204
16 | CCN1CCN(c2nc(-c3ccccc3)nc3sc(C#N)c(C)c23)CC1 [Example 1, 4-(4-Ethylpiperazin-1-yl)-5-methyl-2-phenylthieno[2,3-d]pyrimidine-6-carbonitrile] | 178 to 179
17 | Cc1c(C#N)sc2nc(-c3ccc4c(c3)OCO4)nc(N3CCN(C)CC3)c12 [Example 34] | 196 to 197
18 | COc1ccc(-c2nc(N3CCNCC3)c3c(C)c(C#N)sc3n2)cc1 [Example 12, 2-(4-Methoxyphenyl)-5-methyl-4-piperazin-1-ylthieno[2,3-d]pyrimidine-6-carbonitrile] | 210 to 212
19 | CCCNc1nc(-c2ccc(OC)c(OC)c2)nc2sc(C#N)c(C)c12 [Example 47, 2-(3,4-Dimethoxyphenyl)-5-methyl-4-(propylamino)thieno[2,3-d]pyrimidine-6-carbonitrile] | 179 to 181
20 | Cc1c(C#N)sc2nc(-c3ccncc3)nc(N(C)CCO)c12 [Example 42, 4-[(2-Hydroxyethyl)(methyl)amino]-5-methyl-2-pyridin-4-ylthieno[2,3-d]pyrimidine-6-carbonitrile] | 194 to 195
21 | Cc1c(C#N)sc2nc(-c3ccncc3)nc(N3CCOCC3)c12 [Example 41, 5-Methyl-4-morpholin-4-yl-2-pyridin-4-ylthieno[2,3-d]pyrimidine-6-carbonitrile] | > 250
22 | Cc1c(C#N)sc2nc(-c3ccc(C(F)(F)F)cc3)nc(N3CCN(C)CC3)c12 [Example 33, 5-Methyl-4-(4-methylpiperazin-1-yl)-2-[4-(trifluoromethyl)phenyl]thieno[2,3-d]pyrimidine-6-carbonitrile] | 187 to 189

Results, then the compound that gave them:

Row | melting point [°C] | SMILES
23 | 191 to 193 | COc1cc(-c2nc(NC(C)C)c3c(C)c(C#N)sc3n2)cc(OC)c1OC [Example 70, 4-(Isopropylamino)-5-methyl-2-(3,4,5-trimethoxyphenyl)thieno[2,3-d]pyrimidine-6-carbonitrile]
24 | 125 to 127 | COc1cc(-c2nc(N(C)CCN(C)C)c3c(C)c(C#N)sc3n2)cc(OC)c1OC [Example 107, 4-[[2-(Dimethylamino)ethyl](methyl)amino]-5-methyl-2-(3,4,5-trimethoxyphenyl) thieno[2,3-d]pyrimidine-6-carbonitrile]
25 | 94 to 97 | COCCNc1nc(Cc2ccc(OC)c(OC)c2)nc2sc(C#N)c(C)c12 [Example 106, 2-(3,4-Dimethoxybenzyl)-4-[(2-methoxyethyl)amino]-5-methylthieno[2,3-d]pyrimidine-6-carbonitrile]
26 | > 290 | COc1cc(-c2nc(N(C)CCN)c3c(C)c(C#N)sc3n2)cc(OC)c1OC [Example 86, 4-[(2-Aminoethyl)(methyl)amino]-5-methyl-2-(3,4,5-trimethoxyphenyl)thieno[2,3-d]pyrimidine-6-carbonitrile]
27 | 192 to 194 | CCCCNc1nc(-c2cc(OC)c(OC)c(OC)c2)nc2sc(C#N)c(C)c12 [Example 69, 4-(Butylamino)-5-methyl-2-(3,4,5-trimethoxyphenyl)thieno[2,3-d]pyrimidine-6-carbonitrile]
28 | 143 to 147 | COc1cc(Cc2nc(NC(C)C)c3c(C)c(C#N)sc3n2)cc(OC)c1OC [Example 113, 4-(Isopropylamino)-5-methyl-2-(3,4,5-trimethoxybenzyl)thieno[2,3-d]pyrimidine-6-carbonitrile]
29 | 222 to 225 | COc1cc(-c2nc(NCCC(=O)O)c3c(C)c(C#N)sc3n2)cc(OC)c1OC [Example 87, N-[6-Cyano-5-methyl-2-(3,4,5-trimethoxyphenyl)thieno[2,3-d]pyrimidin-4-yl]-beta-alanine]
30 | 146 to 148 | COc1cc(Cc2nc(NC(C)(C)C)c3c(C)c(C#N)sc3n2)cc(OC)c1OC [Example 116, 4-(tert-Butylamino)-5-methyl-2-(3,4,5-trimethoxybenzyl)thieno[2,3-d]pyrimidine-6-carbonitrile]
31 | 236 to 240 | COc1cc(-c2nc(-n3cncn3)c3c(C)c(C#N)sc3n2)cc(OC)c1OC [Example 91, 5-Methyl-4-(1H-1,2,4-triazol-1-yl)-2-(3,4,5-trimethoxyphenyl)thieno[2,3-d]pyrimidine-6-carbonitrile]
32 | 149 to 151 | COc1ccc(Cc2nc(NCCO)c3c(C)c(C#N)sc3n2)cc1OC [Example 104, 2-(3,4-Dimethoxybenzyl)-4-[(2-hydroxyethyl)amino]-5-methylthieno[2,3-d]pyrimidine-6-carbonitrile]
33 | 164 to 165 | CCNc1nc(Cc2cc(OC)c(OC)c(OC)c2)nc2sc(C#N)c(C)c12 [Example 111, 4-(Ethylamino)-5-methyl-2-(3,4,5-trimethoxybenzyl)thieno[2,3-d]pyrimidine-6-carbonitrile]
34 | 129 to 131 | COc1cc(Cc2nc(NCC(C)C)c3c(C)c(C#N)sc3n2)cc(OC)c1OC [Example 135, 4-(Isobutylamino)-5-methyl-2-(3,4,5-trimethoxybenzyl)thieno[2,3-d]pyrimidine-6-carbonitrile]
35 | 194 to 195 | CNc1nc(Cc2cc(OC)c(OC)c(OC)c2)nc2sc(C#N)c(C)c12 [Example 110, 5-Methyl-4-(methylamino)-2-(3,4,5-trimethoxybenzyl)thieno[2,3-d]pyrimidine-6-carbonitrile]
36 | 88 to 90 | Cc1c(C#N)sc2nc(Cc3ccccc3)nc(N3CCOCC3)c12 [Example 58, 2-Benzyl-5-methyl-4-morpholin-4-yl-thieno[2,3-d]pyrimidine-6-carbonitrile]
37 | 213 to 215 | COc1cc(-c2nc(N3CCNC(C)C3)c3c(C)c(C#N)sc3n2)cc(OC)c1OC (stereo not shown) [Example 83, 5-Methyl-4-(3-methylpiperazin-1-yl)-2-(3,4,5-trimethoxyphenyl)thieno[2,3-d]pyrimidine-6-carbonitrile]
38 | 127 to 129 | CCC(CC)Nc1nc(Cc2cc(OC)c(OC)c(OC)c2)nc2sc(C#N)c(C)c12 [Example 115, 4-[(1-Ethylpropyl)amino]-5-methyl-2-(3,4,5-trimethoxybenzyl)thieno[2,3-d]pyrimidine-6-carbonitrile]
39 | 67 to 70 | COc1ccc(Cc2nc(N3CCOCC3)c3c(C)c(C#N)sc3n2)cc1OC [Example 92, 2-(3,4-Dimethoxybenzyl)-5-methyl-4-morpholin-4-ylthieno[2,3-d]pyrimidine-6-carbonitrile]
40 | 207 to 208 | CCNc1nc(-c2cc(OC)cc(OC)c2)nc2sc(C#N)c(C)c12 [Example 134]
